According to ChEMBL document CHEMBL3885861, “Open TG-GATES”:

Organism: Rattus norvegicus
Test: Open TG-GATES - Regimen: Daily Repeat
Assay type: toxicity, organism-based, Sprague-Dawley
Design: regimen Daily Repeat, gender Male, age 6 weeks
Details: in vivo, po, 0 mg/kg, route gavage, dose level Control; for APTT / Bas / Eos / Fbg / Hb / Ht / Lym / MCH / MCHC / MCV / Mono / Neu / PT / Plat / RBC / Ret / WBC: tissue Blood; for KIDNEY_L / KIDNEY_R / KIDNEY_TOTAL: tissue Kidney; for LIVER: tissue Liver; for A/G / ALP / ALT / AST / BUN / CRE / Ca / Cl / DBIL / GLC / IP / K / LDH / Na / PL / RALB / TBIL / TC / TG / TP / gamma-GTP: tissue Plasma

For COc1ccc(Cc2nccc3cc(OC)c(OC)cc23)cc1OC [PAPAVERINE], the TERMINAL_BW (72 h, time 3 day) was 240.5 g, the APTT (72 h, time 3 day) was 21.1 s and the Bas (72 h, time 3 day) was 0%. For the same compound, the Eos (72 h, time 3 day) was 1%, the Fbg (72 h, time 3 day) was 326.8 mg/dL and the Hb (72 h, time 3 day) was 13.5 g/dL. It also gave a Ht (72 h, time 3 day) of 40.7%, a Lym (72 h, time 3 day) of 81.2% and an MCH (72 h, time 3 day) of 21 pg. The MCHC (72 h, time 3 day) was 33.4%, the MCV (72 h, time 3 day) was 63 fL and the Mono (72 h, time 3 day) was 2.2%. It also gave a Neu (72 h, time 3 day) of 14.4%, a PT (72 h, time 3 day) of 15.8 s and a Plat (72 h, time 3 day) of 114.4 x10_4/uL. For the same compound, the RBC (72 h, time 3 day) was 645.6 x10_4/ul, the Ret (72 h, time 3 day) was 6.6% and the WBC (72 h, time 3 day) was 105.4 x10_2/uL. The KIDNEY_L (72 h, time 3 day) was 1 g, the KIDNEY_R (72 h, time 3 day) was 1 g and the KIDNEY_TOTAL (72 h, time 3 day) was 2 g. It also gave an LIVER (72 h, time 3 day) of 11.4 g, an A/G (72 h, time 3 day) of 1.2 and an ALP (72 h, time 3 day) of 1572.8 IU/L. For the same compound, the ALT (72 h, time 3 day) was 41.4 IU/L, the AST (72 h, time 3 day) was 70.2 IU/L and the BUN (72 h, time 3 day) was 16 mg/dL. It also gave a CRE (72 h, time 3 day) of 0.2 mg/dL, a Ca (72 h, time 3 day) of 11 mg/dL and a Cl (72 h, time 3 day) of 108.2 meq/L. The DBIL (72 h, time 3 day) was 0 mg/dL, the GLC (72 h, time 3 day) was 202.2 mg/dL and the IP (72 h, time 3 day) was 7.2 mg/dL. For the same compound, the K (72 h, time 3 day) was 4.2 meq/L, the LDH (72 h, time 3 day) was 171.6 IU/L and the Na (72 h, time 3 day) was 142.6 meq/L. It also gave a PL (72 h, time 3 day) of 136.4 mg/dL, an RALB (72 h, time 3 day) of 3 g/dL and a TBIL (72 h, time 3 day) of 0.004 mg/dL. It also gave a TC (72 h, time 3 day) of 72 mg/dL, a TG (72 h, time 3 day) of 116 mg/dL and a TP (72 h, time 3 day) of 5.5 g/dL. For the same compound, the gamma-GTP (72 h, time 3 day) was 1.2 IU/L, the TERMINAL_BW ([…], time 7 day) was 267.4 g and the TERMINAL_BW ([…], time 14 day) was 326.9 g. It also gave a TERMINAL_BW ([…], time 28 day) of 413.6 g, an APTT ([…], time 7 day) of 23.2 s and a Bas ([…], time 7 day) of 0%. It also gave an Eos ([…], time 7 day) of 0.8%, a Fbg ([…], time 7 day) of 299 mg/dL and a Hb ([…], time 7 day) of 13.7 g/dL. It also gave a Ht ([…], time 7 day) of 40.3%, a Lym ([…], time 7 day) of 80% and an MCH ([…], time 7 day) of 21 pg. It also gave an MCHC ([…], time 7 day) of 34.1%, an MCV ([…], time 7 day) of 61.6 fL and a Mono ([…], time 7 day) of 2.8%. It also gave a Neu ([…], time 7 day) of 14.8%, a PT ([…], time 7 day) of 15.7 s and a Plat ([…], time 7 day) of 111.7 x10_4/uL. It also gave an RBC ([…], time 7 day) of 654 x10_4/ul, a Ret ([…], time 7 day) of 5.6% and a WBC ([…], time 7 day) of 125.6 x10_2/uL. It also gave an APTT ([…], time 14 day) of 22.8 s, a Bas ([…], time 14 day) of 0% and an Eos ([…], time 14 day) of 1%. For the same compound, the Fbg ([…], time 14 day) was 316.8 mg/dL, the Hb ([…], time 14 day) was 14.6 g/dL and the Ht ([…], time 14 day) was 42.7%. The Lym ([…], time 14 day) was 82%, the MCH ([…], time 14 day) was 20.7 pg and the MCHC ([…], time 14 day) was 34.1%. For the same compound, the MCV ([…], time 14 day) was 60.5 fL, the Mono ([…], time 14 day) was 2.2% and the Neu ([…], time 14 day) was 13.2%. For the same compound, the PT ([…], time 14 day) was 15.5 s, the Plat ([…], time 14 day) was 107 x10_4/uL and the RBC ([…], time 14 day) was 707 x10_4/ul. For the same compound, the Ret ([…], time 14 day) was 5%, the WBC ([…], time 14 day) was 120 x10_2/uL and the APTT ([…], time 28 day) was 24.6 s. It also gave a Bas ([…], time 28 day) of 0%, an Eos ([…], time 28 day) of 1.6% and a Fbg ([…], time 28 day) of 315.8 mg/dL. The Hb ([…], time 28 day) was 14.5 g/dL, the Ht ([…], time 28 day) was 43.8% and the Lym ([…], time 28 day) was 77.8%. It also gave an MCH ([…], time 28 day) of 18.7 pg, an MCHC ([…], time 28 day) of 33% and an MCV ([…], time 28 day) of 56.6 fL. The Mono ([…], time 28 day) was 2%, the Neu ([…], time 28 day) was 17.8% and the PT ([…], time 28 day) was 16 s. It also gave a Plat ([…], time 28 day) of 101.3 x10_4/uL, an RBC ([…], time 28 day) of 775 x10_4/ul and a Ret ([…], time 28 day) of 3%. For the same compound, the WBC ([…], time 28 day) was 123.2 x10_2/uL, the KIDNEY_L ([…], time 7 day) was 1.1 g and the KIDNEY_R ([…], time 7 day) was 1.1 g. It also gave a KIDNEY_TOTAL ([…], time 7 day) of 2.2 g, a KIDNEY_L ([…], time 14 day) of 1.2 g and a KIDNEY_R ([…], time 14 day) of 1.3 g. For the same compound, the KIDNEY_TOTAL ([…], time 14 day) was 2.5 g, the KIDNEY_L ([…], time 28 day) was 1.4 g and the KIDNEY_R ([…], time 28 day) was 1.5 g. The KIDNEY_TOTAL ([…], time 28 day) was 3 g, the LIVER ([…], time 7 day) was 12.1 g and the LIVER ([…], time 14 day) was 14.2 g. The LIVER ([…], time 28 day) was 16.8 g, the A/G ([…], time 7 day) was 1.2 and the ALP ([…], time 7 day) was 1358 IU/L. It also gave an ALT ([…], time 7 day) of 47 IU/L, an AST ([…], time 7 day) of 82.2 IU/L and a BUN ([…], time 7 day) of 19.4 mg/dL. The CRE ([…], time 7 day) was 0.2 mg/dL, the Ca ([…], time 7 day) was 10.3 mg/dL and the Cl ([…], time 7 day) was 107.2 meq/L. For the same compound, the DBIL ([…], time 7 day) was 0 mg/dL, the GLC ([…], time 7 day) was 203.2 mg/dL and the IP ([…], time 7 day) was 6.7 mg/dL. For the same compound, the K ([…], time 7 day) was 4.4 meq/L, the LDH ([…], time 7 day) was 248.2 IU/L and the Na ([…], time 7 day) was 140.4 meq/L. It also gave a PL ([…], time 7 day) of 148.8 mg/dL, an RALB ([…], time 7 day) of 3 g/dL and a TBIL ([…], time 7 day) of 0 mg/dL. For the same compound, the TC ([…], time 7 day) was 75 mg/dL, the TG ([…], time 7 day) was 101.6 mg/dL and the TP ([…], time 7 day) was 5.5 g/dL. The gamma-GTP ([…], time 7 day) was 2 IU/L, the A/G ([…], time 14 day) was 1.1 and the ALP ([…], time 14 day) was 1381.4 IU/L. For the same compound, the ALT ([…], time 14 day) was 42.2 IU/L, the AST ([…], time 14 day) was 67 IU/L and the BUN ([…], time 14 day) was 17.6 mg/dL. The CRE ([…], time 14 day) was 0.2 mg/dL, the Ca ([…], time 14 day) was 10.5 mg/dL and the Cl ([…], time 14 day) was 106.6 meq/L. For the same compound, the DBIL ([…], time 14 day) was 0 mg/dL, the GLC ([…], time 14 day) was 199.6 mg/dL and the IP ([…], time 14 day) was 6.7 mg/dL. For the same compound, the K ([…], time 14 day) was 4.4 meq/L, the LDH ([…], time 14 day) was 164.6 IU/L and the Na ([…], time 14 day) was 142.8 meq/L. The PL ([…], time 14 day) was 148.4 mg/dL, the RALB ([…], time 14 day) was 3 g/dL and the TBIL ([…], time 14 day) was 0.016 mg/dL. The TC ([…], time 14 day) was 78.4 mg/dL, the TG ([…], time 14 day) was 119.2 mg/dL and the TP ([…], time 14 day) was 5.7 g/dL. It also gave a gamma-GTP ([…], time 14 day) of 2.4 IU/L, an A/G ([…], time 28 day) of 1.1 and an ALP ([…], time 28 day) of 1231 IU/L. For the same compound, the ALT ([…], time 28 day) was 44.4 IU/L, the AST ([…], time 28 day) was 68.2 IU/L and the BUN ([…], time 28 day) was 20 mg/dL. It also gave a CRE ([…], time 28 day) of 0.2 mg/dL, a Ca ([…], time 28 day) of 10.2 mg/dL and a Cl ([…], time 28 day) of 105 meq/L. It also gave a DBIL ([…], time 28 day) of 0 mg/dL, a GLC ([…], time 28 day) of 211.4 mg/dL and an IP ([…], time 28 day) of 6.2 mg/dL. For the same compound, the K ([…], time 28 day) was 4.1 meq/L, the LDH ([…], time 28 day) was 160.4 IU/L and the Na ([…], time 28 day) was 141.4 meq/L. It also gave a PL ([…], time 28 day) of 147.4 mg/dL, an RALB ([…], time 28 day) of 3.1 g/dL and a TBIL ([…], time 28 day) of 0.008 mg/dL. For the same compound, the TC ([…], time 28 day) was 73.6 mg/dL, the TG ([…], time 28 day) was 132.6 mg/dL and the TP ([…], time 28 day) was 5.8 g/dL. It also gave a gamma-GTP ([…], time 28 day) of 3.2 IU/L.
